Test results reported in ChEMBL document CHEMBL1144941, “Synthesis of second-generation transition state analogues of human purine nucleoside phosphorylase” (J Med Chem, 2003).

Biological target: T1, Purine nucleoside phosphorylase (Homo sapiens) (UniProt P00491)
T1 sequence (whole entry): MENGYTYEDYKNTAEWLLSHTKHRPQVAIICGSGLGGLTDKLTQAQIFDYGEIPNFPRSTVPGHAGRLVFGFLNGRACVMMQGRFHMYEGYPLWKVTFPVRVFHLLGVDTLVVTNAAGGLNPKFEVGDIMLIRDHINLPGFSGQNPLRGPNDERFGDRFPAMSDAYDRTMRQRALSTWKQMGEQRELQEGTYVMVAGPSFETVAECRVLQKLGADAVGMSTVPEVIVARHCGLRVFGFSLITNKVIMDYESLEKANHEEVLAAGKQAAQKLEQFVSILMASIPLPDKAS
Conditions: Urine

OC[C@H]1CN(Cc2n[nH]c3c(O)ncnc23)CC1O (stereo partly specified)
NS: No slow onset
